Holding throughout (assay type): biochemical
One experiment deals with T1, TCPTP (Homo sapiens, UniProt P17706).
T1 sequence (P17706 1-415): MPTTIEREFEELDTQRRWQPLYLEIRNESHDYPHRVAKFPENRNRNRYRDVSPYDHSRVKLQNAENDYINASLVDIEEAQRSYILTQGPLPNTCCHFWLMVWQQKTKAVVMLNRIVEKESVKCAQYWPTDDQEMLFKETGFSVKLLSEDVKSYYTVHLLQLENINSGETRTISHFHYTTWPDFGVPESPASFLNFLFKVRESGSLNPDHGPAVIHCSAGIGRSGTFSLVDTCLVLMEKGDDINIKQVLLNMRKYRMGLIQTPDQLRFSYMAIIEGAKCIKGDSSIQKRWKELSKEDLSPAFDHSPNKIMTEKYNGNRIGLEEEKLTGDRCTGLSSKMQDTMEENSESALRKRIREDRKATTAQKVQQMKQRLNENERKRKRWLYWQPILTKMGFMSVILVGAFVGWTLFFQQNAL
The experiment in a line: Inhibition of protein tyrosine phosphatase (PTPs) assay, pNPP substrate: TCPTP. The text has this:
(§1) Protein tyrosine phosphatase (PTPs) plays an important role in many human threatening diseases, such as PTP1B, an effective target for the treatment of type II diabetes; CD45, an effective target for the treatment of leukemia; and TCPTP, a reliable target for the treatment of cancer involved in multiple signaling pathways ([Ruddraraju and Zhang, 2017]). Nitrophenyl phosphate (pNPP) was used as substrate to determine the enzyme inhibition test. Fifty microliter reaction buffer (pH 6.5) including 50 mM HEPES, 100 mM NaCl, 1 mM EDTA, and 1 mM dithiothreitol (DTT) and compounds was added to 96 well plates, and incubate at room temperature for 15 min. Further, 50 μl reaction buffer with 50 mM pNPP was added and incubated at 37°C for 60 min. Na3VO4 was used as positive control and DMSO as the negative control. The phosphatase activity was determined by absorbance measured at 405 nm. The test was repeated three times for each compound. The IC50 value was derived from three independent experiments.
(§2) Protein tyrosine phosphatase (PTPs) plays an important role in many human threatening diseases, such as PTP1B, an effective target for the treatment of type II diabetes; CD45, an effective target for the treatment of leukemia; and TCPTP, a reliable target for the treatment of cancer involved in multiple signaling pathways ([Zhang, 2003]; [Vintonyak et al., 2009]).

The target in a further experiment is T2, CD45 (Homo sapiens, UniProt P08575).
T2 sequence (P08575 26-1306): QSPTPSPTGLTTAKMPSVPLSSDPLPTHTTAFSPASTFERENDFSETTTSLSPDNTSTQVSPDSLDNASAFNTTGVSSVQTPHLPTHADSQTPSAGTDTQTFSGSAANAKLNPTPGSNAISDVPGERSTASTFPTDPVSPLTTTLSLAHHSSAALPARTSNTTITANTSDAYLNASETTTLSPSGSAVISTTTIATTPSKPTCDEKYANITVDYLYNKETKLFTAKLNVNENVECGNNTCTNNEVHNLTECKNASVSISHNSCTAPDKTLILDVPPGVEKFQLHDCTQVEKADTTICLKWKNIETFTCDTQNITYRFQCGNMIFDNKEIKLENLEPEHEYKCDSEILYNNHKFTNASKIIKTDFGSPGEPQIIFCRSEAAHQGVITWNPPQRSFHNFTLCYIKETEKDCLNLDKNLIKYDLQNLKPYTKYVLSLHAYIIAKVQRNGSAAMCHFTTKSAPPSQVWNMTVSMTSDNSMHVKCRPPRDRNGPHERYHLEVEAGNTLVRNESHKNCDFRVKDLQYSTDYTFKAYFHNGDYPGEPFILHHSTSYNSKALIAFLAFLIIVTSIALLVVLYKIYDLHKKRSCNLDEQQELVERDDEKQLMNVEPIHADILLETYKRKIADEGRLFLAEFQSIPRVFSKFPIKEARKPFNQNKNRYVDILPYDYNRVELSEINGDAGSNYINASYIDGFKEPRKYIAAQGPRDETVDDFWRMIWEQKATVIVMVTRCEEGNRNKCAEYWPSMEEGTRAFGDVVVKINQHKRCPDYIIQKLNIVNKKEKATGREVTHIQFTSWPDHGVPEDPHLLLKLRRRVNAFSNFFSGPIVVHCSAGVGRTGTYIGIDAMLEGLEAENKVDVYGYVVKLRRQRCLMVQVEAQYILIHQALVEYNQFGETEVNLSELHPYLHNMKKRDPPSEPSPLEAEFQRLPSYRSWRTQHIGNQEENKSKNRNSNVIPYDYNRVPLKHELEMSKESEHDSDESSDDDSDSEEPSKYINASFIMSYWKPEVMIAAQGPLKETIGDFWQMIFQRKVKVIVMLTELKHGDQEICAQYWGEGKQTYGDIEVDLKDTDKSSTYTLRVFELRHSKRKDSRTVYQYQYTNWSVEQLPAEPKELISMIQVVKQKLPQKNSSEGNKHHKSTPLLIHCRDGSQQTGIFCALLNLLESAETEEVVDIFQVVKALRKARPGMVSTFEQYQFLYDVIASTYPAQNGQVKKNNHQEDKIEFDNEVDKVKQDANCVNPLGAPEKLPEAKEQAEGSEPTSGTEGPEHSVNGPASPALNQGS
The experiment in a line: Inhibition of protein tyrosine phosphatase (PTPs) assay, pNPP substrate: CD45.
From the text: as §1, §2

In a further experiment the target is T3, PTP1B (Homo sapiens, UniProt P18031).
T3 sequence (P18031 1-435): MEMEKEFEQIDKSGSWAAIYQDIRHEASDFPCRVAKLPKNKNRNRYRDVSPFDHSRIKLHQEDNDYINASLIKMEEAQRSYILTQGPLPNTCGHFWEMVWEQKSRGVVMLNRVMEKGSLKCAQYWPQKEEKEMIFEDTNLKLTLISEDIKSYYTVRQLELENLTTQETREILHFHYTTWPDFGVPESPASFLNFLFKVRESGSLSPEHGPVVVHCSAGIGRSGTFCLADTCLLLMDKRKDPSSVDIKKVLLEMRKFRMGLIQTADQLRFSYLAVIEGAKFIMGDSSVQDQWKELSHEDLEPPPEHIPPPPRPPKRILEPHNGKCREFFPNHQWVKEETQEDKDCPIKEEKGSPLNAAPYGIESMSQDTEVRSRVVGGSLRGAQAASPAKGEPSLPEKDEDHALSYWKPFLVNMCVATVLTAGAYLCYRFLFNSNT
The experiment in a line: Inhibition of protein tyrosine phosphatase (PTPs) assay, pNPP substrate: PTP1B. To be noted: for inhibitory activity against PTP1B (in words): in vitro, compared with Na3VO4. The method, then: Nitrophenyl phosphate (pNPP) was used as substrate to determine the enzyme inhibition test. Fifty microliter reaction buffer (pH 6.5) including 50 mM HEPES, 100 mM NaCl, 1 mM EDTA, and 1 mM dithiothreitol (DTT) and compounds was added to 96 well plates, and incubate at room temperature for 15 min. Further, 50 μl reaction buffer with 50 mM pNPP was added and incubated at 37°C for 60 min. […] The phosphatase activity was determined by absorbance measured at 405 nm. The test was repeated three times for each compound. The IC50 value was derived from three independent experiments.

Another experiment concerns the target IDH1 R132h (Homo sapiens, UniProt O75874, R132H). The experiment in a line: Isocitrate dehydrogenase inhibition assay (NADPH/α-KG, WST-8 readout). Conditions: for IC50: room temperature 60 min, absorbance 450 nm, repeated three times. The method, then:
DMSO was used to configure the compounds into different concentrations as test samples. 2 mm NADPH (3 μl) and 1 m α-Kg (0.1 μl) was added to IDH1 buffer (pH 6.5; 96 μl) solution as reaction substrate in the reaction system. Then, the test samples (2.0 μl), IDH1 R132h (0.4 μl), PMS (0.1 μl) and 15 mM WST-8 (1.0 μl) were successively added to the above mixture and reacted at room temperature for 60 min. AGI-5198 was used as positive control and DMSO as the negative control. The absorption peak of 450 nm was detected by microplate reader. The test was repeated three times for each test samples, and the IC50 was calculated by GraphPad Prism.
We have learned that isocitrate dehydrogenase (IDH) gene mutations are closely related to the occurrence and development of tumors ([Fujii et al., 2016]). IDH mutations mainly occur in malignant tumors such as glioma, acute myeloid leukemia, chondrosarcoma, and intrahepatic cholangiocarcinoma. IDH mutation ultimately promote the occurrence and development of tumors ([Gondim et al., 2019]). Therefore, inhibition of IDH1 R132h activity was screened using the above compounds. AGI-5198 was used as a positive control in this experiment with the IC50 value of 0.04 μg/ml.
(Tetrazolium dyes change colour on reduction, which living cells bring about.)

Setting [1] is: pNPP substrate, pH 6.5, 37°C 60 min, absorbance 405 nm, three independent experiments.
[2] abbreviates: pNPP substrate, pH 6.5, 37°C 60 min, absorbance 405 nm, three independent experiments, read-out: IC50 TCPTP.
Setting [3] is: pNPP substrate, pH 6.5, 37°C 60 min, absorbance 405 nm, three independent experiments, read-out: IC50 PTP1B (converted).
The mark [4] stands for this setting: pNPP substrate, pH 6.5, 37°C 60 min, absorbance 405 nm, three independent experiments, read-out: IC50 CD45 (converted).

Molecules are shown by their SMILES. “Also recorded” adds a separate entry of the source. Like-named read-outs stand apart in the source and are kept apart here.

Sequence of IDH1 R132h (O75874 whole entry R132H): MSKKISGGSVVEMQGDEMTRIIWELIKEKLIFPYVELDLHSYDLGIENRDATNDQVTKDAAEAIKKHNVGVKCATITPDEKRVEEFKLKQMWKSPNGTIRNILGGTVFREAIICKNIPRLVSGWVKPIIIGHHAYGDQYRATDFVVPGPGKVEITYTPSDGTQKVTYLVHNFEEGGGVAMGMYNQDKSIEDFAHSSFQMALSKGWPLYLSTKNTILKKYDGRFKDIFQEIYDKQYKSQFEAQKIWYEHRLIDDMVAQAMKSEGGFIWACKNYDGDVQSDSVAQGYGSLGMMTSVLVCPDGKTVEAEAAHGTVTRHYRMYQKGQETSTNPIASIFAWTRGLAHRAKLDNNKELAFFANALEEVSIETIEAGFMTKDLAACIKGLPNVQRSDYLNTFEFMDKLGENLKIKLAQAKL

Turning to `[Na+].[Na+].[Na+].[O]=[V]([O-])([O-])[O-]` [Na3VO4, reference compound], at TCPTP (setting [1]), the “IC50 TCPTP” value worked out at 0.44 ± 0.11 µg/mL. Besides, the “IC50 CD45” value on CD45 (setting [1]) was found to be 0.36 ± 0.09 µg/mL.
Usually IC50 stands for the concentration needed to halve the response being measured. Turning to `COc1cc(O)c2c(c1)C1C[C@H](O)[C@@H](O)C[C@@]1(C)OC2=O` (some centres unmarked) [Compound 9, 3-epidihydroaltenuene A], the half-inhibitory concentration (IC50) at TCPTP (setting [2]) is greater than 340 µM; at PTP1B (setting [3]) it was 3.3 µM; at CD45 (setting [4]) it was greater than 340 µM. Besides, at PTP1B, the “inhibitory activity against PTP1B (in words)” value was “specific and significant inhibition; also recorded: significant inhibitory activity”.
Take `COc1cc(O)cc(C2=C(C)C[C@@H](O)C2=O)c1` [Compound 14, (+)-nigrosporaol A]: the results for the IC50 on TCPTP (setting [2]), on PTP1B (setting [3]) and at CD45 (setting [4]) were greater than 427 µM, 383 µM and greater than 427 µM, respectively.
With `COc1cc(O)c2c(=O)oc3cc(O)cc(C)c3c2c1` [Compound 7, alternariol 9-methyl ether], the half-inhibitory concentration (IC50) against TCPTP is 211 µM; against PTP1B it was 139 µM; against CD45, 72.8 µM.
For `COc1cc(O)c2c(c1)C1=CC(O)C(O)CC1(C)OC2=O` (centres unmarked) [Compound 12, 4′-epialtenuene], the IC50 is greater than 342 µM on TCPTP (setting [2]), 25.5 µM at PTP1B (setting [3]) and greater than 342 µM on CD45 (setting [4]). The “inhibitory activity against PTP1B (in words)” value on PTP1B is reported as “inhibitory activity”.
Regarding `Cc1cc(O)cc2oc(=O)c3c(O)cc(O)cc3c12` [Compound 6, alternariol], the IC50 against TCPTP was 30.2 µM; at PTP1B it was 61 µM; against CD45 it was 22.5 µM. Further, the “inhibitory activity against TCPTP (in words)” value against TCPTP (in vitro, compared with Na3VO4) is “definite inhibitory activity”. Also, at CD45 (in vitro, compared with Na3VO4), the “inhibitory activity against CD45 (in words)” value was “definite inhibitory activity”.
In the case of `COc1cc(O)c2c(c1)C1=C[C@H](O)[C@@H](O)C[C@]1(C)OC2=O` [Compound 10, 5-hydroxyepialtenuene], the IC50 on TCPTP (setting [2]) was greater than 342 µM; at PTP1B (setting [3]) it was 156 µM; on CD45 (setting [4]), greater than 342 µM.
As for `Cc1ccccc1C(C(=O)NC1CCCCC1)N(C(=O)Cn1ccnc1C)c1cccc(F)c1` (centres unmarked) [AGI-5198, reference compound], on IDH1 R132h, 0.0865 µM corresponded to half-maximal inhibition (IC50).
On to `COC(=O)C1CC2(O)CC3(C)OC(=O)c4c(O)cc(OC)cc4C3=CC2(O)O1` (centres unmarked) [Compound 4, Alternapyrone N], for which, on IDH1 R132h, the “inhibitory activity against IDH1 R132h (in words)” value is listed as “inhibitory activities” and it took 36 µM to reach half-maximal inhibition (IC50).
Turning to `COc1cc(O)c2c(c1)C1(CC(O)C(O)C=C1C)OC2=O` (centres unmarked) [Compound 2, Alternafurone B], on IDH1 R132h, the “inhibitory activity against IDH1 R132h (in words)” value is reported as “inhibitory activities” and the 50% inhibitory concentration (IC50) is 66.4 µM.
As to `Cc1cc(=O)c2c(C)cc(O)cc2o1` [Compound 17, 2,5-dimethyl-7-hydroxychromone], the IC50 at TCPTP (setting [2]) was greater than 526 µM; at PTP1B (setting [3]), greater than 526 µM; on CD45 (setting [4]), 104 µM.
Take `Cc1cc(O)cc2oc(CO)cc(=O)c12` [Compound 19, 7-hydroxy-2-hydroxymethyl-5-methyl-4H-chromen-4-one]: the IC50 was greater than 485 µM at TCPTP (setting [2]), greater than 485 µM at PTP1B (setting [3]) and 120 µM at CD45 (setting [4]).
On IDH1 R132h, `COc1cc(O)c2c(c1)C1=CC3(CC(O)C(=O)O3)C(O)CC1(C)OC2=O` (centres unmarked) [Compound 3, Alternapyrone M] showed a concentration for half-maximal inhibition (IC50) greater than 147 µM.
As to `COc1cc(O)c2c(c1)C1=C[C@@H](O)[C@@H](O)C[C@]1(C)OC2=O` [Compound 11, 5′-epialtenuene], the IC50 at TCPTP (setting [2]) is greater than 342 µM; at PTP1B (setting [3]), 187 µM; on CD45 (setting [4]), greater than 342 µM.
In the case of `COc1cc(O)c2c(c1)C1(CC(O)C(O)C=C1C)OC2=O` (centres unmarked) [Compound 1, Alternafurone A], at IDH1 R132h, the “inhibitory activity against IDH1 R132h (in words)” value is “inhibitory activities” and the midpoint of inhibition, the IC50, lay at 101 µM.

The values above are taken from article PMC9556845 (Frontiers in Microbiology, 2022).
